From ChEMBL document CHEMBL3124828, “A 2,6,9-hetero-trisubstituted purine inhibitor exhibits potent biological effects against multiple myeloma cells” (Bioorg Med Chem, 2013)
The source made the active and inactive calls.

How the values were obtained:
OCI-AML2 = test: Cytotoxicity against human OCI-AML2 cells after 72 hrs by MTS assay; format: functional, cell-based
MDA-MB-468 = test: Cytotoxicity against human MDA-MB-468 cells after 72 hrs by MTS assay; format: functional, cell-based
DU-145 = test: Cytotoxicity against human DU145 cells after 72 hrs by MTS assay; format: functional, cell-based
[1] = target: Signal transducer and activator of transcription 3 (Homo sapiens) (UniProt P40763); test: Displacement of FAM-GpYLPQTV-NH2 from full-length Stat3 SH2 domain (unknown origin) up to 400 uM by fluorescence polarization
Chain of Signal transducer and activator of transcription 3 (Homo sapiens) (P40763 whole entry, the tested form may be a part): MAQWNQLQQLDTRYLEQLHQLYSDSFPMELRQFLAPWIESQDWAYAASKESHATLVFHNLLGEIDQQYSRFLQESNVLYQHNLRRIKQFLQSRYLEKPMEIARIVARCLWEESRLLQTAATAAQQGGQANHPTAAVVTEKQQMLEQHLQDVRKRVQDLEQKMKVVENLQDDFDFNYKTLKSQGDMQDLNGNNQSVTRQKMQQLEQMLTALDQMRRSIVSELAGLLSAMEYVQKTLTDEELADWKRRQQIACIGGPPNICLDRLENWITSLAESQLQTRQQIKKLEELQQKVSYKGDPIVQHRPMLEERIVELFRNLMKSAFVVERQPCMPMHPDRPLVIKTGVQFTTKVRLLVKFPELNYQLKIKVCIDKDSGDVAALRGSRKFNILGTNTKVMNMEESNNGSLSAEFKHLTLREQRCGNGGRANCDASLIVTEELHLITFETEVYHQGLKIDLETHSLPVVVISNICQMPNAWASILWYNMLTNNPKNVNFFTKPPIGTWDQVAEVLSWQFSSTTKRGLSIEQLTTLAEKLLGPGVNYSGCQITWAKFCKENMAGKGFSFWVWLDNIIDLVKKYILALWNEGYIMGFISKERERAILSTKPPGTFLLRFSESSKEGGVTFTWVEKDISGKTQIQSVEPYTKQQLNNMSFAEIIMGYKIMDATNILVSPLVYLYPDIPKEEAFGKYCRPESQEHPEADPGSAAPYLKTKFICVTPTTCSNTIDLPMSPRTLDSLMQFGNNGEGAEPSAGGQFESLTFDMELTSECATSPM

CC(C)(C)C(=O)OCOC(=O)Cn1cnc2c(N3CCOCC3)nc(NC(=O)C3CCCCC3)nc21
inactive: Activity (OCI-AML2) | Activity (MDA-MB-468) | Activity (DU-145)

NS(=O)(=O)OCCn1cnc2c(N3CCOCC3)nc(NC(=O)C3CCCCC3)nc21
inactive: inhibition [1] | Activity (OCI-AML2) | Activity (MDA-MB-468) | Activity (DU-145)

CC(C)CCNc1nc(NCc2ccc(C3CCCCC3)cc2)nc2c1ncn2CC(=O)OCOC(=O)C(C)(C)C
inactive: Activity (OCI-AML2) | Activity (MDA-MB-468) | Activity (DU-145)

O=C(Nc1nc(N2CCOCC2)c2ncn(CCc3nnn[nH]3)c2n1)C1CCCCC1
inactive: Activity (OCI-AML2) | Activity (MDA-MB-468) | Activity (DU-145)

c1coc(CNc2nc(NCc3ccc(C4CCCCC4)cc3)nc3c2ncn3CCc2nnn[nH]2)c1
inactive: inhibition [1] | Activity (OCI-AML2) | Activity (MDA-MB-468) | Activity (DU-145)

NS(=O)(=O)OCCn1cnc2c(Oc3ccc([N+](=O)[O-])cc3)nc(NCc3ccc(C4CCCCC4)cc3)nc21
inactive: Activity (OCI-AML2) | Activity (MDA-MB-468) | Activity (DU-145)

CC(C)CNc1nc(NCc2ccc(C3CCCCC3)cc2)nc2c1ncn2CC(=O)OCOC(=O)C(C)(C)C
inactive: Activity (OCI-AML2) | Activity (MDA-MB-468) | Activity (DU-145)

CC(C)(C)C(=O)OCOC(=O)Cn1cnc2c(N3CCOCC3)nc(NCc3ccc(C4CCCCC4)cc3)nc21
inactive: Activity (OCI-AML2) | Activity (MDA-MB-468) | Activity (DU-145)

CC(=O)OCOC(=O)Cn1cnc2c(NCCC(C)C)nc(NCc3ccc(C4CCCCC4)cc3)nc21
inactive: Activity (OCI-AML2) | Activity (MDA-MB-468) | Activity (DU-145)

Fc1ccc(Nc2nc(NCc3ccc(C4CCCCC4)cc3)nc3c2ncn3CCc2nnn[nH]2)cc1
inactive: inhibition [1] | Activity (OCI-AML2) | Activity (MDA-MB-468) | Activity (DU-145)

NS(=O)(=O)OCCn1cnc2c(NC3CCCC3)nc(NCc3ccc(C4CCCCC4)cc3)nc21
inactive: Activity (OCI-AML2) | Activity (MDA-MB-468) | Activity (DU-145)

CC(C)CNc1nc(NCc2ccc(C3CCCCC3)cc2)nc2c1ncn2CCc1nnn[nH]1
inactive: Activity (OCI-AML2) | Activity (MDA-MB-468) | Activity (DU-145)

CC(C)(C)C(=O)OCOC(=O)Cn1cnc2c(NCc3ccco3)nc(NCc3ccc(C4CCCCC4)cc3)nc21
inactive: Activity (OCI-AML2) | Activity (MDA-MB-468) | Activity (DU-145)

CC(=O)OCOC(=O)Cn1cnc2c(NCc3ccco3)nc(NCc3ccc(C4CCCCC4)cc3)nc21
inactive: Activity (OCI-AML2) | Activity (MDA-MB-468) | Activity (DU-145)

c1cc(C2CCCCC2)ccc1CNc1nc(NC2CCCC2)c2ncn(CCc3nnn[nH]3)c2n1
inactive: Activity (OCI-AML2) | Activity (MDA-MB-468) | Activity (DU-145)

CC(C)(C)C(=O)OCOC(=O)Cn1cnc2c(Nc3ccc(F)cc3)nc(NCc3ccc(C4CCCCC4)cc3)nc21
inactive: inhibition [1] | Activity (OCI-AML2) | Activity (MDA-MB-468) | Activity (DU-145)

CCOC(=O)Cn1cnc2c(NCCC(C)C)nc(NCc3ccc(C4CCCCC4)cc3)nc21
inactive: Activity (OCI-AML2) | Activity (MDA-MB-468) | Activity (DU-145)

CC(C)CNc1nc(NCc2ccc(C3CCCCC3)cc2)nc2c1ncn2CCOS(N)(=O)=O
inactive: Activity (OCI-AML2) | Activity (MDA-MB-468) | Activity (DU-145)

NS(=O)(=O)OCCn1cnc2c(N3CCOCC3)nc(NCc3ccc(C4CCCCC4)cc3)nc21
inactive: Activity (OCI-AML2) | Activity (MDA-MB-468) | Activity (DU-145)

c1cc(C2CCCCC2)ccc1CNc1nc(N2CCOCC2)c2ncn(CCc3nnn[nH]3)c2n1
inactive: Activity (OCI-AML2) | Activity (MDA-MB-468) | Activity (DU-145)

CCOC(=O)Cn1cnc2c(N3CCOCC3)nc(NCc3ccc(C4CCCCC4)cc3)nc21
inactive: Activity (OCI-AML2) | Activity (MDA-MB-468) | Activity (DU-145)

CCOC(=O)Cn1cnc2c(Nc3ccc(F)cc3)nc(NCc3ccc(C4CCCCC4)cc3)nc21
inactive: inhibition [1] | Activity (OCI-AML2) | Activity (MDA-MB-468) | Activity (DU-145)

CC(=O)OCOC(=O)Cn1cnc2c(Nc3ccc(F)cc3)nc(NCc3ccc(C4CCCCC4)cc3)nc21
inactive: inhibition [1] | Activity (OCI-AML2) | Activity (MDA-MB-468) | Activity (DU-145)

CCOC(=O)Cn1cnc2c(Oc3ccc([N+](=O)[O-])cc3)nc(NCc3ccc(C4CCCCC4)cc3)nc21
inactive: Activity (OCI-AML2) | Activity (MDA-MB-468) | Activity (DU-145)

CC(=O)OCOC(=O)Cn1cnc2c(NCC(C)C)nc(NCc3ccc(C4CCCCC4)cc3)nc21
inactive: Activity (OCI-AML2) | Activity (MDA-MB-468) | Activity (DU-145)

O=[N+]([O-])c1ccc(Oc2nc(NCc3ccc(C4CCCCC4)cc3)nc3c2ncn3CCc2nnn[nH]2)cc1
inactive: Activity (OCI-AML2) | Activity (MDA-MB-468) | Activity (DU-145)

CC(C)CCNc1nc(NCc2ccc(C3CCCCC3)cc2)nc2c1ncn2CCc1nnn[nH]1
inactive: Activity (OCI-AML2) | Activity (MDA-MB-468) | Activity (DU-145)

CC(C)CCNc1nc(NCc2ccc(C3CCCCC3)cc2)nc2c1ncn2CCOS(N)(=O)=O
inactive: Activity (OCI-AML2) | Activity (MDA-MB-468) | Activity (DU-145)

CC(=O)OCOC(=O)Cn1cnc2c(N3CCOCC3)nc(NC(=O)C3CCCCC3)nc21
inactive: Activity (OCI-AML2) | Activity (MDA-MB-468) | Activity (DU-145)

CC(=O)OCOC(=O)Cn1cnc2c(N3CCOCC3)nc(NCc3ccc(C4CCCCC4)cc3)nc21
inactive: Activity (OCI-AML2) | Activity (MDA-MB-468) | Activity (DU-145)

CCOC(=O)Cn1cnc2c(NCc3ccco3)nc(NCc3ccc(C4CCCCC4)cc3)nc21
inactive: Activity (OCI-AML2) | Activity (MDA-MB-468) | Activity (DU-145)

NS(=O)(=O)OCCn1cnc2c(NCc3ccco3)nc(NCc3ccc(C4CCCCC4)cc3)nc21
inactive: Activity (OCI-AML2) | Activity (MDA-MB-468) | Activity (DU-145)

CCOC(=O)Cn1cnc2c(N3CCOCC3)nc(NC(=O)C3CCCCC3)nc21
inactive: Activity (OCI-AML2) | Activity (MDA-MB-468) | Activity (DU-145)

CCOC(=O)Cn1cnc2c(NCC(C)C)nc(NCc3ccc(C4CCCCC4)cc3)nc21
inactive: Activity (OCI-AML2) | Activity (MDA-MB-468) | Activity (DU-145)

CC(C)(C)C(=O)OCOC(=O)Cn1cnc2c(Oc3ccc([N+](=O)[O-])cc3)nc(NCc3ccc(C4CCCCC4)cc3)nc21
inactive: Activity (OCI-AML2) | Activity (MDA-MB-468) | Activity (DU-145)

CC(=O)OCOC(=O)Cn1cnc2c(NC3CCCC3)nc(NCc3ccc(C4CCCCC4)cc3)nc21
inactive: Activity (OCI-AML2) | Activity (MDA-MB-468) | Activity (DU-145)

CC(=O)OCOC(=O)Cn1cnc2c(Oc3ccc([N+](=O)[O-])cc3)nc(NCc3ccc(C4CCCCC4)cc3)nc21
inactive: Activity (OCI-AML2) | Activity (MDA-MB-468) | Activity (DU-145)

CC(C)(C)C(=O)OCOC(=O)Cn1cnc2c(NC3CCCC3)nc(NCc3ccc(C4CCCCC4)cc3)nc21
inactive: Activity (OCI-AML2) | Activity (MDA-MB-468) | Activity (DU-145)

CCOC(=O)Cn1cnc2c(NC3CCCC3)nc(NCc3ccc(C4CCCCC4)cc3)nc21
inactive: Activity (OCI-AML2) | Activity (MDA-MB-468) | Activity (DU-145)
